Data taken from PubChem BioAssay AID2060505 (Molecular Pharmacology Branch, DTP, NCI, 2025).

System: 633275-114-R-J1-PDC complex spheroids, viability
Assay: Anticancer human tumor 633275-114-R-J1-PDC patient-derived endometrial adenocarcinoma cell line growth inhibition [GQUAD]
Conditions: for IC50: curve of first compound; for viability, T/C: stronger effect = lower value
Text: DNA G-quadruplex Stabilizer Agents in Combinations in Complex Spheroids
A high-throughput screen of multi-cell type tumor spheroids was designed to identify active combinations of DNA G-quadruplex stabilizer agents and targeted small molecules. Complex spheroids include a stromal component modeled by human endothelial cells (HUVEC) and fibroblasts modeled by human mesenchymal stem cells (MSCs). The concentration ranges selected for each drug and investigational agent were based upon clinically achievable concentrations if the clinical Cmax of the agent was known.
Compounds. The drugs and investigational agents: pidnarulex (CX-5461; NSC782164), APTO-253 (NSC789042), BRACO-19 (NSC847499), peposertib (NSC802822), ceralasertib (NSC780249), elimusertib (NSC800525), camonsertib (NSC841442), AZD-1390 (NSC803789), olaparib (NSC753686), talazoparib (NSC767125), ART-558 (NSC835418), sotorasib (NSC818433), MRTX-1133 (NSC836407), SN-38 (NSC673596), topotecan (NSC609699), etoposide (NSC141540), doxorubicin (NSC123127), gemcitabine (NSC613327), 5-fluorouracil (NSC19893), paclitaxel (NSC125973), vemurafenib (NSC761431), panobinostat (NSC761190), R-306465 (JNJ-16241199; NSC773264), adavosertib (NSC754352), TP-3654 (NSC805149), carboplatin (NSC241240), KSQ-4279 (NSC840948), and staurosporine (NSC755774) were obtained from the National Cancer Institute (NCI) Developmental Therapeutics Program Chemical Repository (34). The FDA-approved anticancer drug set is available from the NCI Developmental Therapeutics Program. […] The stock solutions were prepared in dimethyl sulfoxide (DMSO, Sigma-Aldrich, St. Louis, MO, cat. D2650) at 800-fold the tested concentration and stored at -70 degrees C prior to their use. All drugs and investigational agents were tested over a range starting from a high concentration at or near the clinical Cmax and decreasing in half-log increments. If the clinical Cmax for an agent had not been determined, the highest concentration tested was 10 microM.
2.3 Cell Culture. All cells were maintained in an incubator at 37 degrees C and 5% CO2 with 95% humidity. The PDC lines were cultured according to standard operating procedures established by the NCI PDMR. All PDCs were thawed and cultured in Matrigel-coated flasks prepared with a working solution of 1X Ham's F-12 nutrient mix, without supplementation (Invitrogen, cat. 11765054), 100 U/mL penicillin-streptomycin (Invitrogen, cat. 15140122), and 2.5% Matrigel (Corning Inc., cat. 354248) for the first three passages. The 857933-349-R-J2-PDC line was cultured in 6C/Colon 1B media, which includes advanced DMEM/F-12 (Thermo Fisher Scientific, cat. 12634028), 10 mM HEPES (Thermo Fisher Scientific, cat. 15630080), 1X GlutaMAX supplement (Thermo Fisher Scientific, cat. 35050061), 0.1 mg/mL primocin (InvivoGen, cat. ant-pm-2), 10% defined fetal bovine serum, heat inactivated (HyClone Laboratories Inc., cat. SH30070.03HI), 50% L-WRN conditioned media (ATCC, cat. CRL-3276), 1.25 mM N-Acetyl-L-cysteine (Sigma-Aldrich, cat. A9165), 10 mM nicotinamide (Sigma-Aldrich, cat. N0636), 1X B-27 supplement (Thermo Fisher Scientific, cat. 17504044), 1X N-2 supplement (Thermo Fisher Scientific, cat. 17502048), 10 microM Y-27632 dihydrochloride (Tocris Bioscience, cat. 1254), and 50 ng/mL human EGF recombinant protein (Thermo Fisher Scientific, cat. PHG0311). The 485176-168-R4-J1-PDC line was cultured in Panc media, which includes all 6C/Colon 1B media components plus 100 ng/mL human FGF-10 (Thermo Fisher Scientific, cat. 100-26), 500 nM SB-431542 (Selleckchem, cat. S1067), and gastrin (Tocris, cat. 3006).
[…]

[1] = second compound 0.0316 µM, first compound 0.0316 µM
[2] = second compound 0.0316 µM, first compound 0.1 µM
[3] = second compound 0.0316 µM, first compound 0.316 µM
[4] = second compound 0.0316 µM, first compound 1 µM
[5] = second compound 0.0316 µM, first compound 3.16 µM
[6] = second compound 0.0316 µM, first compound 10 µM
[7] = second compound 0.1 µM, first compound 0.0316 µM
[8] = second compound 0.1 µM, first compound 0.1 µM
[9] = second compound 0.1 µM, first compound 0.316 µM
[10] = second compound 0.1 µM, first compound 1 µM
[11] = second compound 0.1 µM, first compound 3.16 µM
[12] = second compound 0.1 µM, first compound 10 µM
[13] = second compound 0.316 µM, first compound 0.0316 µM
[14] = second compound 0.316 µM, first compound 0.1 µM
[15] = second compound 0.316 µM, first compound 0.316 µM
[16] = second compound 0.316 µM, first compound 1 µM
[17] = second compound 0.316 µM, first compound 3.16 µM
[18] = second compound 0.316 µM, first compound 10 µM
[19] = second compound 1 µM, first compound 0.0316 µM
[20] = second compound 1 µM, first compound 0.1 µM
[21] = second compound 1 µM, first compound 0.316 µM
[22] = second compound 1 µM, first compound 1 µM
[23] = second compound 1 µM, first compound 3.16 µM
[24] = second compound 1 µM, first compound 10 µM
[25] = second compound 3.16 µM, first compound 0.0316 µM
[26] = second compound 3.16 µM, first compound 0.1 µM
[27] = second compound 3.16 µM, first compound 0.316 µM
[28] = second compound 3.16 µM, first compound 1 µM
[29] = second compound 3.16 µM, first compound 3.16 µM
[30] = second compound 3.16 µM, first compound 10 µM
[31] = second compound 10 µM, first compound 0.0316 µM
[32] = second compound 10 µM, first compound 0.1 µM
[33] = second compound 10 µM, first compound 0.316 µM
[34] = second compound 10 µM, first compound 1 µM
[35] = second compound 10 µM, first compound 3.16 µM
[36] = second compound 10 µM, first compound 10 µM
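Further: spheroids exposed to the agents for seven days.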
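Wherever viability, T/C is given: percent of DMSO vehicle control viability which is 100%.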

In the case of `CC(C)n1c(=O)n(C)c2cnc3cc(F)c(-c4ccc(OCCCN5CCCCC5)nc4)cc3c21` + CN(C)c1ccc(Nc2c3ccc(NC(=O)CCN4CCCC4)cc3nc3cc(NC(=O)CCN4CCCC4)ccc23)cc1, the IC50 (second compound 0.0316 µM) is reported as over 10000 nM, the IC50 (second compound 0.1 µM) is reported as over 10000 nM and the IC50 (second compound 0.316 µM) is reported as over 10000 nM. It also gave an IC50 (second compound 1 µM) of over 10000 nM, an IC50 (second compound 3.16 µM) of 2550 nM and an IC50 (second compound 10 µM) of under 31.6 nM. It also gave a viability, T/C [1] of 115%, a viability, T/C [2] of 109% and a viability, T/C [3] of 102%. For the same compound, the viability, T/C [4] was 109%, the viability, T/C [5] was 102% and the viability, T/C [6] was 67.9%. The viability, T/C [7] was 102%, the viability, T/C [8] was 115% and the viability, T/C [9] was 98.2%. The viability, T/C [10] was 97.4%, the viability, T/C [11] was 97.4% and the viability, T/C [12] was 65.1%. The viability, T/C [13] was 102%, the viability, T/C [14] was 104% and the viability, T/C [15] was 98.7%. For the same compound, the viability, T/C [16] was 101%, the viability, T/C [17] was 86.1% and the viability, T/C [18] was 70.7%. For the same compound, the viability, T/C [19] was 99.8%, the viability, T/C [20] was 98.3% and the viability, T/C [21] was 113%. The viability, T/C [22] was 78.4%, the viability, T/C [23] was 85.1% and the viability, T/C [24] was 63.5%. The viability, T/C [25] was 84.4%, the viability, T/C [26] was 81.2% and the viability, T/C [27] was 60.4%. The viability, T/C [28] was 64.5%, the viability, T/C [29] was 50.3% and the viability, T/C [30] was 32.3%. The viability, T/C [31] was 29%, the viability, T/C [32] was 28.8% and the viability, T/C [33] was 22.1%. For the same compound, the viability, T/C [34] was 21.5%, the viability, T/C [35] was 17.9% and the viability, T/C [36] was 9.88%.

Compound `CC1COCCN1c1cc(-c2ccnn2C)c2ccnc(-c3ccn[nH]3)c2n1` (centres undefined) + CN(C)c1ccc(Nc2c3ccc(NC(=O)CCN4CCCC4)cc3nc3cc(NC(=O)CCN4CCCC4)ccc23)cc1 has an IC50 (second compound 0.0316 µM) of 136 nM, an IC50 (second compound 0.1 µM) of 163 nM and an IC50 (second compound 0.316 µM) of 175 nM. The IC50 (second compound 1 µM) was 144 nM, the IC50 (second compound 3.16 µM) was 90.5 nM and the IC50 (second compound 10 µM) was under 31.6 nM. It also gave a viability, T/C [1] of 77%, a viability, T/C [2] of 54.4% and a viability, T/C [3] of 37.3%. It also gave a viability, T/C [4] of 26.1%, a viability, T/C [5] of 18% and a viability, T/C [6] of 18.4%. For the same compound, the viability, T/C [7] was 92.4%, the viability, T/C [8] was 59.6% and the viability, T/C [9] was 37.1%. For the same compound, the viability, T/C [10] was 24.8%, the viability, T/C [11] was 18.9% and the viability, T/C [12] was 18.9%. For the same compound, the viability, T/C [13] was 82.2%, the viability, T/C [14] was 61.1% and the viability, T/C [15] was 37.7%. The viability, T/C [16] was 25.9%, the viability, T/C [17] was 19.4% and the viability, T/C [18] was 14.9%. For the same compound, the viability, T/C [19] was 74.1%, the viability, T/C [20] was 55.2% and the viability, T/C [21] was 38.3%. It also gave a viability, T/C [22] of 23.5%, a viability, T/C [23] of 18.1% and a viability, T/C [24] of 16.2%. For the same compound, the viability, T/C [25] was 60.3%, the viability, T/C [26] was 49.6% and the viability, T/C [27] was 33.4%. For the same compound, the viability, T/C [28] was 22.2%, the viability, T/C [29] was 15.8% and the viability, T/C [30] was 11.4%. It also gave a viability, T/C [31] of 30.3%, a viability, T/C [32] of 23.5% and a viability, T/C [33] of 15.9%. The viability, T/C [34] was 12.5%, the viability, T/C [35] was 10.4% and the viability, T/C [36] was 9.22%.
